The test system of experiment [1] is MOLM14 D835Y cells. In words: MOLM14 D835Y cell viability assay (Cell Titer Glo). Format: cell-based. Particulars: Homo sapiens, MOLM-14, 48 h. The gist of the method: (§1)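 MOLM14 cells carrying FLT3 D835Y or F691L were seeded at 1000 cells/well in RPMI-1640 with 20% FBS and dosed at 22 concentrations, 1:2 dilutions from 10 μM. Viability after 48 h by Cell Titer Glo luminescence; 2.3 μM bortezomib as cytotoxic control.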

The test system of experiment [2] is MOLM14 F691L cells. The experiment is described as follows: MOLM14 F691L cell viability assay (Cell Titer Glo). Format: cell-based. Particulars: Homo sapiens, MOLM-14, 48 h. An outline of the steps: as §1
In experiment [3] the target is T1, IRAK4 (Homo sapiens, UniProt Q9NWZ3).
T1 sequence (Q9NWZ3 1-460): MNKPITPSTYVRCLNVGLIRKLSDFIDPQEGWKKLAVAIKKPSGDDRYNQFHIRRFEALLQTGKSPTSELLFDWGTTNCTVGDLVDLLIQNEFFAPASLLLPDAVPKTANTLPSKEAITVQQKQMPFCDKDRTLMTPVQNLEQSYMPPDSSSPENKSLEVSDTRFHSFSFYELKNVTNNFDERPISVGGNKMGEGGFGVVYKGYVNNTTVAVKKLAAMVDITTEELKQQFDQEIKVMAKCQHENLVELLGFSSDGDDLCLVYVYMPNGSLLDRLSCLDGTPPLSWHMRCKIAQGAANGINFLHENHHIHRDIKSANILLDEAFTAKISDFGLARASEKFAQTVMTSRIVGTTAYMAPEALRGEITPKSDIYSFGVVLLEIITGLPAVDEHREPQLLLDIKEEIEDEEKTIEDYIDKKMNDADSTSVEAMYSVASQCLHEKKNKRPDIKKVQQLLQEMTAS
In words: RBC HotSpot Kinase Assay, IRAK4. Format: biochemical. Set-up: purchased Reaction Biology (RBC), HotSpot kinase assay. Particulars: isolated kinase, 33P-ATP. The gist of the method:
(§2)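 Functional radiometric activity assay: kinase + substrate + cofactors in Hepes pH 7.5/MgCl2/EGTA/Brij35/BSA/Na3VO4/DTT, 1% DMSO; cmpd preincubation 20 min RT; 33P-ATP start, 2 h RT; P81 filter-binding readout.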

Experiment [4] deals with T2, FLT3 (Homo sapiens, UniProt P36888).
T2 sequence (P36888 27-993): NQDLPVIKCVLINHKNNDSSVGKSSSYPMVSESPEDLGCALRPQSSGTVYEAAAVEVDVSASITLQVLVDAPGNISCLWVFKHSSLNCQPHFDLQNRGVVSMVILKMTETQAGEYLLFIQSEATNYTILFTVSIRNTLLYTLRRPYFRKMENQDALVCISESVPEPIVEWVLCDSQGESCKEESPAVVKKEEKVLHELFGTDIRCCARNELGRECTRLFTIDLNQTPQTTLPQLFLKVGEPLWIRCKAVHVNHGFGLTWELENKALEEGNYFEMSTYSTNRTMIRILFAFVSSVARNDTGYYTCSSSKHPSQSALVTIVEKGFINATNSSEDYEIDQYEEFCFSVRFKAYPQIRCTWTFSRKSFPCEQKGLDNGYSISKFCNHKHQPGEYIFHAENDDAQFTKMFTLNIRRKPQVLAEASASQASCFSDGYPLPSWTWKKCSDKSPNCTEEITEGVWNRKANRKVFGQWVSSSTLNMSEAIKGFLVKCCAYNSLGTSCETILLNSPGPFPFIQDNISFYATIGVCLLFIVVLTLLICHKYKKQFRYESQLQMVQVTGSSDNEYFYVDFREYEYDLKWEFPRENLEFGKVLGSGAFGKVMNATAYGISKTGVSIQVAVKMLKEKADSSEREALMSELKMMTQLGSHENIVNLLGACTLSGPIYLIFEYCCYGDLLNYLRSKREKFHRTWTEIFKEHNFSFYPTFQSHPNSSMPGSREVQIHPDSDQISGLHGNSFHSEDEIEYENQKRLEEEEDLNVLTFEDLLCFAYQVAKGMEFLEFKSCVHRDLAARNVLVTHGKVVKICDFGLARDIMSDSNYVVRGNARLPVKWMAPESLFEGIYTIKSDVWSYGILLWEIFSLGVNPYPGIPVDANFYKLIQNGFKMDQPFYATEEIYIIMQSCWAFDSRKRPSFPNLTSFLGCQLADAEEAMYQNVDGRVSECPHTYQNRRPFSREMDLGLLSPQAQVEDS
In words: RBC HotSpot Kinase Assay, FLT3. Format: biochemical. To be noted: isolated kinase, 33P-ATP. Set-up: purchased Reaction Biology (RBC), HotSpot kinase assay. An outline of the steps: as §2

Molecules are shown by their SMILES.

On to `F[C@H]1CNC[C@@H]1Nc1cccc(-c2cnc3cnc(C4CC4)cn23)n1` [Compound 50, 6-(6-cyclopropylimidazo[1,2-a]pyrazin-3-yl)-N-((3S,4S)-4-fluoropyrrolidin-3-yl)pyridin-2-amine], for which the IC50 in experiment [1] was 0.024 µM; in experiment [2] it was 0.192 µM; in experiment [3] it was 0.0006 µM; in experiment [4], 0.0006 µM.
As for `F[C@H]1CCNC[C@@H]1Nc1cccc(-c2cnc3cnc(C4CC4)cn23)n1` [Compound 51, 6-(6-cyclopropylimidazo[1,2-a]pyrazin-3-yl)-N-((3S,4S)-4-fluoropiperidin-3-yl)pyridin-2-amine], the IC50 in experiment [1] was 0.009 µM; in experiment [2], 0.053 µM; in experiment [3], 0.001 µM; in experiment [4], less than 0.0005 µM.
With `Cn1cc(-c2cn3c(-c4cccc(N[C@H]5CNC[C@@H]5F)n4)cnc3cn2)cn1` [Compound 52, N-((3S,4S)-4-fluoropyrrolidin-3-yl)-6-(6-(1-methyl-1H-pyrazol-4-yl)imidazo[1,2-a]pyrazin-3-yl)pyridin-2-amine], the IC50 in experiment [1] is 0.011 µM; in experiment [2], 0.106 µM; in experiment [3], 0.001 µM; in experiment [4] it was less than 0.0005 µM.
Consider `O=S1(=O)CCCN1c1cn2c(-c3cccc(N[C@H]4CNCC[C@@H]4F)n3)cnc2cn1` [Compound 97, 2-(3-(6-(((3S,4S)-4-fluoropiperidin-3-yl)amino)pyridin-2-yl)imidazo[1,2-a]pyrazin-6-yl)isothiazolidine 1,1-dioxide], for which the IC50 in experiment [1] came out at 0.005 µM; in experiment [2], 0.026 µM; in experiment [3], 0.006 µM; in experiment [4] it was 0.0006 µM.
In the same order, the values of `O=C1CCCN1c1cn2c(-c3nc(N[C@H]4CNCC[C@@H]4F)c(F)cc3F)cnc2cn1` [Compound 107, 1-[3-[3,5-difluoro-6-[[(3S,4S)-4-fluoro-3-piperidyl]amino]-2-pyridyl]imidazo[1,2-a]pyrazin-6-yl]pyrrolidin-2-one] are 0.021 µM, 0.097 µM, 0.038 µM and 0.001 µM.
In the same order, the values of `O=C1CCCN1c1cn2c(-c3nc(N[C@@H]4CCCNC4)c(F)cc3F)cnc2cn1` [Compound 108, (R)-1-(3-(3,5-difluoro-6-(piperidin-3-ylamino)pyridin-2-yl)imidazo[1,2-a]pyrazin-6-yl)pyrrolidin-2-one] are 0.026 µM, 0.183 µM, 0.013 µM and 0.0009 µM.
The corresponding values for `O=C1NCCN1c1cn2c(-c3cccc(N[C@H]4CNCC[C@@H]4F)n3)cnc2cn1` [Compound 118, 1-(3-(6-(((3S,4S)-4-fluoropiperidin-3-yl)amino)pyridin-2-yl)imidazo[1,2-a]pyrazin-6-yl)imidazolidin-2-one] are 0.009 µM, 0.037 µM, 0.004 µM and 0.001 µM.
For `O=C1CCCN1c1cn2c(-c3cccc(N[C@H]4CNCC[C@@H]4F)n3)cnc2cn1` [Compound 119, 1-(3-(6-(((3S,4S)-4-fluoropiperidin-3-yl)amino)pyridin-2-yl)imidazo[1,2-a]pyrazin-6-yl)pyrrolidin-2-one], the IC50 is 0.019 µM in experiment [1], 0.054 µM in experiment [2], 0.01 µM in experiment [3] and less than 0.0005 µM in experiment [4].
In the same order, the values of `O=C1CCCN1c1cn2c(-c3cccc(N[C@H]4CNC[C@@H]4F)n3)cnc2cn1` [Compound 121, 1-(3-(6-(((3S,4S)-4-fluoropyrrolidin-3-yl)amino)pyridin-2-yl)imidazo[1,2-a]pyrazin-6-yl)pyrrolidin-2-one] are 0.023 µM, 0.173 µM, 0.005 µM and less than 0.0005 µM.
In the same order, the values of `CC(C)(C)c1cn2c(-c3nc(N[C@H]4CNC[C@@H]4F)c(F)cc3F)cnc2cn1` [Compound 125] are 0.163 µM, 2.05 µM, 0.0007 µM and less than 0.0005 µM.
The corresponding values for `CC(C)(C)c1cn2c(-c3nc(N[C@@H]4CCCNC4)c(F)cc3F)cnc2cn1` [Compound 126, (R)-6-(6-(tert-butyl)imidazo[1,2-a]pyrazin-3-yl)-3,5-difluoro-N-(piperidin-3-yl)pyridin-2-amine] are 0.021 µM, 0.205 µM, 0.002 µM and less than 0.0005 µM.
In the case of `CC(C)(C)c1cn2c(-c3nc(N[C@H]4CNCC[C@@H]4F)c(F)cc3F)cnc2cn1` [Compound 127, 6-(6-(tert-butyl)imidazo[1,2-a]pyrazin-3-yl)-3,5-difluoro-N-((3S,4S)-4-fluoropiperidin-3-yl)pyridin-2-amine], the half-inhibitory concentration (IC50) is 0.044 µM in experiment [1], 0.41 µM in experiment [2], 0.002 µM in experiment [3] and less than 0.0005 µM in experiment [4].
The corresponding values for `CC(C)(C)c1cn2c(-c3cccc(N[C@@H]4CCCNC4)n3)cnc2cn1` [Compound 129, (R)-6-(6-(tert-butyl)imidazo[1,2-a]pyrazin-3-yl)-N-(piperidin-3-yl)pyridin-2-amine] are 0.033 µM, 0.163 µM, 0.001 µM and less than 0.0005 µM.
In the same order, the values of `CC(C)(C)c1cn2c(-c3cccc(N[C@H]4CNCC[C@@H]4F)n3)cnc2cn1` [Compound 130, 6-(6-(tert-butyl)imidazo[1,2-a]pyrazin-3-yl)-N-((3S,4S)-4-fluoropiperidin-3-yl)pyridin-2-amine] are 0.026 µM, 0.13 µM, 0.003 µM and less than 0.0005 µM.

(Values after patent US12612410B2 (CHILDREN'S HOSPITAL MEDICAL CENTER, priority 2020, dated 2026).)
